Here are results for two compounds from patent US8318196B2, “Formulations comprising a vitamin and the use thereof to make fortified feed and personal care formulations” (Akzo Nobel N.V., priority 2006, dated 2012).

The nature of this data set: Transmission of aqueous vitamin / castor oil ethoxylate formulations (Turbiscan LAb). It counts as physicochemical. Conditions: ingredients preheated to 50° C. The method, then:
Castor oil ethoxylates were evaluated in formulations with various vitamins by mixing 4 g of a vitamin with 4 g of the castor oil ethoxylate and subsequently adding 28 g water. All ingredients were preheated to 50° C. The transmission (light passing the through the emulsion) was measured using standard Turbiscan™ LAb equipment ex Formulaction. In the evaluation of the samples the highest transmission is looked for, since it indicates a clearer (and better) formulation.

The mark [1] stands for this setting: Comparative Example B: 4 g vitamin + 4 g CO36EO + 28 g water, unit assumed.
[2] abbreviates: Example 1: 4 g vitamin + 4 g CO20EO + 28 g water, higher = clearer, better, unit assumed.

As for `CC(=O)OC/C=C(C)/C=C/C=C(C)/C=C/C1=C(C)CCCC1(C)C` [Vit A acetate], the “transmission (light passing through the emulsion)” value runs as follows: (Comparative Example A: 4 g vitamin + 4 g CO28EO + 28 g water) “Not stable”; under setting [1], 0%; under setting [2], 2.2%.

Regarding `C=C1CC[C@H](O)C/C1=C/C=C1\CCC[C@]2(C)[C@@H]([C@H](C)CCCC(C)C)CC[C@@H]12` [Vit D3], the transmission (light passing through the emulsion) (Comparative Example A: 4 g vitamin + 4 g CO28EO + 28 g water, unit assumed) came to 64.4%; the transmission (light passing through the emulsion) under setting [1] turned out to be 2%; the transmission (light passing through the emulsion) under setting [2] came out at 56.7%.
